# Reference: US20250114460A1, “NOVEL PLK1 DEGRADATION INDUCING COMPOUND” (UPPTHERA, INC., priority 2021, published 2025)
# Columns and labels:
# Type in all cases: cell-based
# [1] = molecular target: T1, PLK1 (Homo sapiens, UniProt P53350); test: Luciferase assay for PLK1 in HeLa LgBit (Plk1-HiBit KI) cell line; details: 300 nM compound, luminescence after 9 hours
# T1 construct: endogenous in cells; host or cells: HeLa LgBit (Plk1-HiBit KI): HeLa stably expressing LgBit, with a CRISPR/Cas9 knock-in of HiBit at the endogenous PLK1 locus
# T1 sequence (P53350 whole entry): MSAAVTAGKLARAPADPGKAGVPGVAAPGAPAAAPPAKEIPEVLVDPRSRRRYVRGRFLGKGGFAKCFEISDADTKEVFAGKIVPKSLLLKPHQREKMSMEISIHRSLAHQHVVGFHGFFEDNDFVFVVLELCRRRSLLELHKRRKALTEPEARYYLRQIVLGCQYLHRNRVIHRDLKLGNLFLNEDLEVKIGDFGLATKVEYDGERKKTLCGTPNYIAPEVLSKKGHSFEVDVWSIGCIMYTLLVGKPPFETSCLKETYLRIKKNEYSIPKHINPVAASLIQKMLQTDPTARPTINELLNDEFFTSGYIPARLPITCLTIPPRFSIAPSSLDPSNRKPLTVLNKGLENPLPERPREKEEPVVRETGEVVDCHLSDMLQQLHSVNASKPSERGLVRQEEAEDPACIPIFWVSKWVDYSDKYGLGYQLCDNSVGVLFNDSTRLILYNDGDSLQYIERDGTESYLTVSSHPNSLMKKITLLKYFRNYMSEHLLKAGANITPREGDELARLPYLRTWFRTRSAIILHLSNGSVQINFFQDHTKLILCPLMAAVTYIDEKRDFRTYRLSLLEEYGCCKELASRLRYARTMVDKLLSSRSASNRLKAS
# How it was run: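 Luminescence, followed in real time after adding compound at 300 nM and Endurazine substrate, is reported relative to DMSO-treated wells. Cells are a HeLa LgBit line with a Plk1-HiBit knock-in, synchronized by 2 mM thymidine for 24 h, released, and cultured 18 h before treatment.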
# [2] = system: NCI-H526 cell line; test: Cell viability assay for H526 cell (EZ-Cytox); details: Homo sapiens, NCI-H526, 120 h; H526 cells, 5 days, 3000 nM to 0.46 nM
# How it was run: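 Read-out was EZ-Cytox colorimetric absorbance at 450 nm, taken after brief plate shaking, with IC50 derived. Before reading, H526 cells had been cultured with test compound for 5 days.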
# [3] = system: MRC-5 cell line; test: Cell viability assay for MRC-5 cell line (EZ-Cytox); details: Homo sapiens, MRC5, 120 h; MRC-5 normal cell line, 5 days, 10000 nM to 1.52 nM; N.D. = no cytotoxicity until 10 μM; read-out: Activity: IC50 value of Exemplary Compound to MRC-5 cell line
# Procedure: 4. Cell Viability Assay for MRC-5 Cell Line
# (1) Culture of MRC-5 Cell Line
# Passage of cultured cells was maintained within P15.
# (2) Treatment of Compounds of the Present Invention
# Then, it was cultured in 37° C.
# (3) Cytotoxicity Experiment
# CO2 incubator for 4 hours.
Activity: ratio of the luminescense value of each Exemplary Compound treatment group to DMSO treatment group [1],SMILES,IC50 [2],IC50 [3]
++ (++<0.6),"CN1C(=O)C(F)(F)CN(C2CCCC2)c2nc(Nc3ccc(C(=O)NC4CCN(C(=O)CCN5CCN(c6cccc7c6C(=O)N(C6CCC(=O)NC6=O)C7=O)CC5)CC4)cc3OC(F)(F)F)ncc21 (stereo not drawn) [Compound 74, 4-((9-cyclopentyl-7,7-difluoro-5-methyl-6-oxo-6,7,8,9-tetrahydro-5H-pyrimido[4,5-b][1,4]diazepin-2-yl)amino)-N-(1-(3-(4-(2-(2,6-dioxopiperidin-3-yl)-1,3-dioxoisoindolin-4-yl)piperazin-1-yl)propanoyl)piperidin-4-yl)-3-(trifluoromethoxy)benzamide]",< 0.2 µM,> 10 µM
+++ (+++: <0.3),"COc1cc(C(=O)NN2CCN(C(=O)CCC3CCN(c4cccc5c4C(=O)N(C4CCC(=O)NC4=O)C5=O)CC3)CC2)ccc1Nc1ncc2c(n1)N(C1CCCC1)CC(F)(F)C(=O)N2C (stereo not drawn) [Compound 76, 4-((9-cyclopentyl-7,7-difluoro-5-methyl-6-oxo-6,7,8,9-tetrahydro-5H-pyrimido[4,5-b][1,4]diazepin-2-yl)amino)-N-(4-(3-(1-(2-(2,6-dioxopiperidin-3-yl)-1,3-dioxoisoindolin-4-yl)piperidin-4-yl)propanoyl)piperazin-1-yl)-3-methoxybenzamide]",< 0.1 µM,> 10 µM
++ (++<0.6),"COc1cc(C(=O)N(C)C2CCN(C(=O)CCN3CCN(c4cccc5c4C(=O)N(C4CCC(=O)NC4=O)C5=O)CC3)CC2)ccc1Nc1ncc2c(n1)N(C1CCCC1)CC(F)(F)C(=O)N2C (stereo not drawn) [Compound 77, 4-((9-cyclopentyl-7,7-difluoro-5-methyl-6-oxo-6,7,8,9-tetrahydro-5H-pyrimido[4,5-b][1,4]diazepin-2-yl)amino)-N-(1-(3-(4-(2-(2,6-dioxopiperidin-3-yl)-1,3-dioxoisoindolin-4-yl)piperazin-1-yl)propanoyl)piperidin-4-yl)-3-methoxy-N-methylbenzamide]",< 0.1 µM,> 10 µM
+++ (+++: <0.3),"COc1cc(C(=O)NC2CCN(C(=O)CCN3CCN(c4cccc5c4C(=O)N(C4CCC(=O)NC4=O)C5=O)CC3)CC2)c(Cl)cc1Nc1ncc2c(n1)N(C1CCCC1)CC(F)(F)C(=O)N2C (stereo not drawn) [Compound 78, 2-chloro-4-((9-cyclopentyl-7,7-difluoro-5-methyl-6-oxo-6,7,8,9-tetrahydro-5H-pyrimido[4,5-b][1,4]diazepin-2-yl)amino)-N-(1-(3-(4-(2-(2,6-dioxopiperidin-3-yl)-1,3-dioxoisoindolin-4-yl)piperazin-1-yl)propanoyl)piperidin-4-yl)-5-methoxybenzamide]",< 0.1 µM,> 10 µM
+++ (+++: <0.3),"COc1cc(C(=O)NC2CCN(C(=O)COC3CCN(c4cccc5c4C(=O)N(C4CCC(=O)NC4=O)C5=O)CC3)CC2)ccc1Nc1ncc2c(n1)N(C1CCCC1)CC(F)(F)C(=O)N2C (stereo not drawn) [Compound 79, 4-((9-cyclopentyl-7,7-difluoro-5-methyl-6-oxo-6,7,8,9-tetrahydro-5H-pyrimido[4,5-b][1,4]diazepin-2-yl)amino)-N-(1-(2-((1-(2-(2,6-dioxopiperidin-3-yl)-1,3-dioxoisoindolin-4-yl)piperidin-4-yl)oxy)acetyl)piperidin-4-yl)-3-methoxybenzamide]",< 0.1 µM,> 10 µM

# Further lines, the compound ahead of its results:
SMILES,Activity: ratio of the luminescense value of each Exemplary Compound treatment group to DMSO treatment group [1],IC50 [2],IC50 [3]
"COc1cc(C(=O)NN2CCN(C(=O)CCC3CCN(c4ccc5c(c4)CN(C4CCC(=O)NC4=O)C5=O)CC3)CC2)ccc1Nc1ncc2c(n1)N(C(C)C)CC(F)(F)C(=O)N2C (stereo not drawn) [Compound 59, 4-((7,7-difluoro-9-isopropyl-5-methyl-6-oxo-6,7,8,9-tetrahydro-5H-pyrimido[4,5-b][1,4]diazepin-2-yl)amino)-N-(4-(3-(1-(2-(2,6-dioxopiperidin-3-yl)-1-oxoisoindolin-5-yl)piperidin-4-yl)propanoyl)piperazin-1-yl)-3-methoxybenzamide]",++ (++<0.6),< 0.03 µM,> 10 µM
"COc1cc(C(=O)NC2CCN(CCCN3CCN(c4cccc5c4C(=O)N(C4CCC(=O)NC4=O)C5=O)CC3)CC2)ccc1Nc1ncc2c(n1)N(C1CCCC1)CC(F)(F)C(=O)N2C (stereo not drawn) [Compound 60, 4-((9-cyclopentyl-7,7-difluoro-5-methyl-6-oxo-6,7,8,9-tetrahydro-5H-pyrimido[4,5-b][1,4]diazepin-2-yl)amino)-N-(1-(3-(4-(2-(2,6-dioxopiperidin-3-yl)-1,3-dioxoisoindolin-4-yl)piperazin-1-yl)propyl)piperidin-4-yl)-3-methoxybenzamide]",++ (++<0.6),< 0.03 µM,4.19 µM
"COc1cc(C(=O)NC2CCN(C(=O)CCC3CCN(c4cccc5c4C(=O)N(C4CCC(=O)NC4=O)C5=O)CC3)CC2)ccc1Nc1ncc2c(n1)N(C1CCCC1)CC(F)(F)C(=O)N2C (stereo not drawn) [Compound 62, 4-((9-cyclopentyl-7,7-difluoro-5-methyl-6-oxo-6,7,8,9-tetrahydro-5H-pyrimido[4,5-b][1,4]diazepin-2-yl)amino)-N-(1-(3-(1-(2-(2,6-dioxopiperidin-3-yl)-1,3-dioxoisoindolin-4-yl)piperidin-4-yl)propanoyl)piperidin-4-yl)-3-methoxybenzamide]",+++ (+++: <0.3),< 0.1 µM,> 10 µM
"COc1cc(C(=O)NC2CCN(C(=O)CCC3(O)CCN(c4cccc5c4C(=O)N(C4CCC(=O)NC4=O)C5=O)CC3)CC2)ccc1Nc1ncc2c(n1)N(C1CCCC1)CC(F)(F)C(=O)N2C (stereo not drawn) [Compound 63, 4-((9-cyclopentyl-7,7-difluoro-5-methyl-6-oxo-6,7,8,9-tetrahydro-5H-pyrimido[4,5-b][1,4]diazepin-2-yl)amino)-N-(1-(3-(1-(2-(2,6-dioxopiperidin-3-yl)-1,3-dioxoisoindolin-4-yl)-4-hydroxypiperidin-4-yl)propanoyl)piperidin-4-yl)-3-methoxybenzamide]",+++ (+++: <0.3),< 0.05 µM,> 10 µM
"COc1cc(C(=O)NC2CCN(C(=O)CCN3CCN(c4cccc5c4C(=O)N(C4CCC(=O)NC4=O)C5=O)CC3)CC2)ccc1Nc1ncc2c(n1)N(C(C)C)CC(F)(F)C(=O)N2C (stereo not drawn) [Compound 66, 4 4-((7,7-difluoro-9-isopropyl-5-methyl-6-oxo-6,7,8,9-tetrahydro-5H-pyrimido[4,5-b][1,4]diazepin-2-yl)amino)-N-(1-(3-(4-(2-(2,6-dioxopiperidin-3-yl)-1,3-dioxoisoindolin-4-yl)piperazin-1-yl)propanoyl)piperidin-4-yl)-3-methoxybenzamide]",+++ (+++: <0.3),< 0.05 µM,> 10 µM
"COc1cc(C(=O)NC2CCN(C(=O)CCN3CCN(c4cccc5c4C(=O)N(C4CCC(=O)NC4=O)C5=O)CC3)CC2)ccc1Nc1ncc2c(n1)N(C1CCC1)CC(F)(F)C(=O)N2C (stereo not drawn) [Compound 68, 4-((9-cyclobutyl-7,7-difluoro-5-methyl-6-oxo-6,7,8,9-tetrahydro-5H-pyrimido[4,5-b][1,4]diazepin-2-yl)amino)-N-(1-(3-(4-(2-(2,6-dioxopiperidin-3-yl)-1,3-dioxoisoindolin-4-yl)piperazin-1-yl)propanoyl)piperidin-4-yl)-3-methoxybenzamide]",+++ (+++: <0.3),< 0.1 µM,> 10 µM
"Cc1cc(C(=O)NC2CCN(C(=O)CCN3CCN(c4cccc5c4C(=O)N(C4CCC(=O)NC4=O)C5=O)CC3)CC2)ccc1Nc1ncc2c(n1)N(C1CCCC1)CC(F)(F)C(=O)N2C (stereo not drawn) [Compound 71, 4-((9-cyclopentyl-7,7-difluoro-5-methyl-6-oxo-6,7,8,9-tetrahydro-5H-pyrimido[4,5-b][1,4]diazepin-2-yl)amino)-N-(1-(3-(4-(2-(2,6-dioxopiperidin-3-yl)-1,3-dioxoisoindolin-4-yl)piperazin-1-yl)propanoyl)piperidin-4-yl)-3-methylbenzamide]",++ (++<0.6),< 0.05 µM,> 10 µM
"CN1C(=O)C(F)(F)CN(C2CCCC2)c2nc(Nc3ccc(C(=O)NC4CCN(C(=O)CCN5CCN(c6cccc7c6C(=O)N(C6CCC(=O)NC6=O)C7=O)CC5)CC4)cc3O)ncc21 (stereo not drawn) [Compound 72, 4-((9-cyclopentyl-7,7-difluoro-5-methyl-6-oxo-6,7,8,9-tetrahydro-5H-pyrimido[4,5-b][1,4]diazepin-2-yl)amino)-N-(1-(3-(4-(2-(2,6-dioxopiperidin-3-yl)-1,3-dioxoisoindolin-4-yl)piperazin-1-yl)propanoyl)piperidin-4-yl)-3-hydroxybenzamide]",++ (++<0.6),< 0.1 µM,> 10 µM
